The supplement of paper PMC10307832

Legend:
Assay in all cases: relative viability (nuclei count vs DMSO), 5 days (fraction); higher = more cells survive
[1] = compound: CCC1=CN=CN=C1N2CCN(CC2)CC3=NC4=C(N3)C=C(C=C4)C(F)(F)F + CC(=O)Nc1cccc(-n2c(=O)n(C3CC3)c(=O)c3c(Nc4ccc(I)cc4F)n(C)c(=O)c(C)c32)c1 [Trametinib] (partner 0.02 µM)
Outline: (§1)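 Each reported value is a median over duplicate plates. It expresses relative viability: treated-well nuclei count divided by vehicle-well nuclei count. Lung cancer cell lines in 1536-well plates were dosed by pin tool a day after seeding, alone with one drug or with a fixed anchor-drug dose plus five library-drug doses (not always all listed) in √10 steps, and nuclei were counted after 5 days.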

Mirin + Navitoclax = compound: N=C1NC(=O)/C(=C/c2ccc(O)cc2)S1 [Mirin] + CC1(C)CCC(c2ccc(Cl)cc2)=C(CN2CCN(c3ccc(C(=O)NS(=O)(=O)c4ccc(N[C@H](CCN5CCOCC5)CSc5ccccc5)c(S(=O)(=O)C(F)(F)F)c4)cc3)CC2)C1 [Navitoclax] (partner 0.5 µM)
Outline: as §1

Mirin + Phenformin = compound: N=C1NC(=O)/C(=C/c2ccc(O)cc2)S1 [Mirin] + N=C(N)NC(=N)NCCc1ccccc1 [Phenformin] (partner 250 µM)
Outline: as §1

Mirin + Olaparib = compound: N=C1NC(=O)/C(=C/c2ccc(O)cc2)S1 [Mirin] + O=C(c1cc(Cc2n[nH]c(=O)c3ccccc23)ccc1F)N1CCN(C(=O)C2CC2)CC1 [Olaparib] (partner 8 µM)
Outline: as §1

Cell Line	relative viability ([1]; first compound 0.04 µM)	relative viability ([1]; first compound 0.1265 µM)	relative viability ([1]; first compound 0.4 µM)	relative viability ([1]; first compound 1.265 µM)	relative viability ([1]; first compound 4 µM)	relative viability (Mirin + Navitoclax; first compound 0.25 µM)	relative viability (Mirin + Navitoclax; first compound 0.7906 µM)	relative viability (Mirin + Navitoclax; first compound 2.5 µM)	relative viability (Mirin + Navitoclax; first compound 7.906 µM)	relative viability (Mirin + Navitoclax; first compound 25 µM)	relative viability (Mirin + Phenformin; first compound 0.25 µM)	relative viability (Mirin + Phenformin; first compound 0.7906 µM)	relative viability (Mirin + Phenformin; first compound 2.5 µM)	relative viability (Mirin + Phenformin; first compound 7.906 µM)	relative viability (Mirin + Phenformin; first compound 25 µM)	relative viability (Mirin + Olaparib; first compound 0.25 µM)	relative viability (Mirin + Olaparib; first compound 0.7906 µM)	relative viability (Mirin + Olaparib; first compound 2.5 µM)	relative viability (Mirin + Olaparib; first compound 7.906 µM)	relative viability (Mirin + Olaparib; first compound 25 µM)
HCC-78	0.843	0.712	0.628	0.577	0.562	0.758	0.712	0.866	0.847	0.674	0.661	0.616	0.867	0.571	0.793	0.786	0.628	0.718	0.852	0.732
HCC-366	0.344	0.372	0.349	0.285	0.269	1.1	1.02	1.06	1.1	0.958	0.627		0.718	0.601	0.583	0.377	0.376	0.346	0.426	0.335
HCC-827	0.483	0.51	0.544	0.497	0.553	1.01	1	1	1.07	1.27	0.415	0.362	0.401	0.403	0.428	0.627	0.704	0.647	0.626	0.623
HOP-62	0.424	0.378	0.373	0.346	0.355	1.03	1.02	0.955	0.888	1.43	0.608	0.707	0.726	0.596	0.723	0.548	0.409	0.219	0.381	0.519
IA-LM						0.835	0.899	0.705	0.498	0.752						0.786	0.947	0.765		0.902
LC-2-ad	0.976	0.814	0.938	0.921	0.871	0.452	0.673	0.466	0.36	0.401	0.624	0.498	0.589	0.47	0.416	0.743	0.757	0.706	0.784	0.733
LCLC-97TM1	0.195	0.164	0.183	0.238	0.2	0.314	0.515	0.511	0.194	0.288	0.445	0.515	0.439	0.36	0.53	0.386	0.413	0.486	0.244	0.166
LCLC-103H	0.724	0.731	0.673	0.683	0.639						0.342	0.345	0.324	0.387	0.358	0.703	0.892	0.758	0.847	0.89
LK-2	0.854	0.727	0.666	0.452	0.567	0.752	0.625	0.799	0.588	0.525	0.408		0.363	0.203	0.167	0.629	0.454	0.695	0.489	0.546
LOU-NH91	0.782	0.768	0.789	0.727	0.817	0.681		0.673	0.718	0.76	0.718	0.671	0.703	0.668	0.856	0.927	0.976	0.946	0.943	1.09
LU99A	0.558	0.57	0.505	0.481	0.578	0.706	0.677	0.92	0.742	0.542	0.839	0.687	0.882	0.762	0.766	0.297	0.206	0.288	0.228	0.165
NCI-H358	0.126	0.173	0.171	0.127	0.142						0.344	0.347	0.318	0.313	0.213	0.6	0.86	0.584	0.487	0.601
NCI-H522	0.797	0.848	0.761	0.692	0.795						0.608	0.621	0.6	0.574	0.559	0.583	0.665	0.624	0.719	0.508
NCI-H650	0.95	0.996	0.985	0.814	0.856						0.436	0.384	0.453		0.546	0.365	0.433	0.352	0.307	0.366
NCI-H661	0.638	0.591	0.508	0.471	0.49						0.292	0.278	0.287	0.272	0.247	0.713	0.759	0.712	0.707	0.655
NCI-H1299						0.998	1.1	1.09	1.03	1.2						1.03	1.01	0.958	0.867	1.03
NCI-H1563											0.668	0.76	0.67	0.703	0.657					
NCI-H1623											0.562	0.383	0.577	0.459	0.48					
NCI-H1648	0.555			0.391	0.519											0.572		0.955	0.639	0.764
NCI-H1703						1.27	1.21	1.26		0.685						0.414	0.384	0.412		0.635
NCI-H2342	0.748	0.906	0.826	0.503	0.511						0.724	0.559	0.658	0.37	0.48	0.441	0.442	0.427		0.368
SW 900	0.545	0.679	0.857		0.7						0.732	0.654	0.488	0.597	0.629	0.842	0.959	0.848	0.913	0.767
